Six compounds from US6872751B2, “Composition and method for augmenting or restoring the production of fetal protein in patient in need thereof” (Centre National de la Recherche Scientifique - CNRS, priority 1999, dated 2005) can be followed below.

Structures are written as SMILES. “Also recorded” adds a separate entry of the source.

Assay [1] has as its system utrophin. In words: Utrophin immunofluorescence in NXLT (normal) myotubes. The assay is classed as cell-based, mouse. The conditions noted are these: 48 hours. The method, then: (§1) A, a-h: normal cell line (NXTL). B, a′-h′: mdx cell line (XLT). The cell cultures were treated by exposure of the differentiated myotubes to drugs for 48 hours. A, a′: control cultures. B, b′: L-arginine(2.10^−3M). c, c′: SIN-1 (10^−3 M). d, d′: SIN-I (10^−3 M) +L-arginine (10^−3 M). e, e′: D-arginine (10^−3 M). f, f′: L-arginine (10^−3 M)+OQD (10^−5 M). g, g′: L-NMMA (10^−3 M). h, h′: hydroxyurea (10^−4 M).
(§2) Myotubes were obtained from normal cell line (NXLT) and mdx cell line as described by Liberona et al (1998, Muscle & Nerve, 21:902-909), and C2 myotubes as described by Inestrosa et al. (1983, Exp. Cell Res., 147:393-405).
(§3) In vitro. The cultures were treated as described previously with the exception of the second antibody labelled with fluoroscein which was diluted to 1/100 vol/vol. The incubation time was 2 hours for the first and second antibody.

The subject of assay [2] is utrophin. The experiment in a line: Utrophin immunofluorescence in XLT (mdx) myotubes. The class given is cell-based, mouse. Particulars: 48 hours. The method, then:
as §1, §2, §3

The subject of assay [3] is utrophin. The experiment in a line: Utrophin immunolocalisation in muscle of mdx mice treated chronically with L-arginine. The assay is classed as in vivo, mouse. Particulars: 200 mg/kg daily intra-peritoneal for three weeks, thigh muscles. The method, then:
(§4) Three normal, adult mice aged 18 months (C57 BL/6 line) and three mdx mice were given a daily intra-peritoneal injection of 200 mg/kg L-arginine for three weeks. Two other groups of three adult mice were used as controls and were given a daily injection of physiological serum.
(§5) The mice were sacrificed by ether anaesthesia, the biceps femoris and the semi-tendinous muscles were quickly dissected from the hind limbs of each animal and frozen in liquid nitrogen.
(§6) In vivo. After cold fixing in methanol (−20° C. for 10 minutes) sections of […] were incubated for two hours with utrophin specific monoclonal antibody (NCL-DRP 2, Novacastra) (1/10 vol/vol) in PBS containing 0.1% saponin and 0.2% bovine albumin. The second antibody labelled with fluoroscein (N 1031, Amersham) was diluted (1/4000 vol/vol) in PBS containing 0.1% saponin and incubated for one hour.

Assay [4] relates to utrophin. The experiment in a line: Utrophin immunofluorescence in primary rat myotubes. The assay is classed as cell-based. How it is done: as §3
In assay [5] the test system is utrophin. The experiment in a line: Utrophin immunolocalisation in muscle of normal adult mice treated chronically with L-arginine. The assay is classed as in vivo, mouse. The conditions noted are these: normal adult C57 BL/6 mice, 200 mg/kg daily intra-peritoneal for three weeks, thigh muscles. How it is done:
as §4, §5, §6

For assay [6], the system named is utrophin. In words: Utrophin immunofluorescence in C2 myotubes. The class given is cell-based, mouse. The conditions noted are these: C2 mice myotubes. How it is done: Myotubes were obtained from normal cell line (NXLT) and mdx cell line as described by Liberona et al (1998, Muscle & Nerve, 21:902-909), and C2 myotubes as described by Inestrosa et al. (1983, Exp. Cell Res., 147:393-405). In vitro. The cultures were treated as described previously with the exception of the second antibody labelled with fluoroscein which was diluted to 1/100 vol/vol. The incubation time was 2 hours for the first and second antibody.

In assay [7] the test system is utrophin. In words: Utrophin immunoblot of XLT (mdx) myotubes. The class given is cell-based, mouse. Particulars: 48 hours, 2.10^-3 M. How it is done:
(§7) Imunoblot analysis of utrophin was conducted under control conditions (CTRL) and after 48 hours treatment with 2.10^−3 M L-arginine (L-arg).
as §2
(§8) The myotubes obtained from the NXLT, XLT and C2 lines were homogenized using a Polytron (Kinematica) in 10 mM Tris-HCl pH 6.8, 1% Triton X-100, 1% SOS, 0.5% sodium deoxycholate on ice. The quantity of total proteins was determined following the protocol for the bicinchoninic acid protein test (BCA, Pierce). Equivalent quantities of protein were separated by SOS-Page on 5% gel, then electrotransferred onto a nitrocellulose membrane (Schleicher & Schuell). The membranes were then incubated with the same monoclonal antibody directed against utrophin used for the immunofluorescence techniques (1/250 vol/vol). The fixed antibodies were detected with a Sanofi anti-mouse goat secondary antibody (1/5000 vol/vol) bound to horseradish peroxydase and developed by chemioluminescence reaction (ECL, Amersham Pharmacy Biotech).
Background: A western blot detects proteins with antibodies after separation by electrophoresis.

For assay [8], the system named is utrophin. The experiment in a line: Utrophin immunoblot of C2 myotubes. The class given is cell-based, mouse. Particulars: 48 hours, 2.10^-3 M. How it is done:
as §7, §2, §8

The test system of assay [9] is utrophin. The experiment in a line: Utrophin immunoblot of NXLT myotubes. The conditions noted are these: 48 hours, 2.10^-3 M. The class given is cell-based, mouse. The method, then:
as §7, §2, §8

The mark [10] stands for this setting: ODQ 10^-5 M with L-arginine 10^-3 M.

With `N=C(N)NCCC[C@@H](N)C(=O)O` [D-arginine], the utrophin labelling result in assay [1] (10^-3 M) and in [2] (10^-3 M) was “absence of any effect” throughout.
Consider `CNC(=N)NCCC[C@H](N)C(=O)O` [L-NMMA, N^G-methyl-L-arginine], for which the utrophin labelling entry in [1] (10^-3 M) and in assay [2] (10^-3 M) was “basal level of utrophin” each time.
For `N=C(N)NCCCC(N)C(=O)O` [L-arginine, 2-amino-5-guanidinovaleric acid], the utrophin labelling entry in assay [1] (2.10^-3 M) is given as “utrophin labelling increased”; in [4], “increased labelling of utrophin was also observed to a lesser extent”; in assay [6], “increased labelling of utrophin was also observed to a lesser extent”; in assay [2] (2.10^-3 M) it was “utrophin labelling increased”. Moreover, the “utrophin at the sarcolemma (immunolocalisation)” value in [3] was “increase in utrophin levels under the sarcolenima; also recorded: increased the utrophin level already present in the sarcolemma”; in [5], “utrophin is seen under the sarcolemma; also recorded: utrophin was detected underneath the sarcolemma”. In addition, the “utrophin level (Western blot)” value in assay [7] was “evident increase of utrophin”; in assay [8], “increase in utrophin after treatment with L-arginine was confirmed”; in assay [9], “evident increase of utrophin”.
Take `O=c1onc2cnc3ccccc3n12` [ODQ]: the “utrophin synthesis induced by NO (labelling)” value in assay [1] (setting [10]) and in [2] (setting [10]) was “inhibited” throughout.
As for `N=c1c[n+](N2CCOCC2)[n-]o1` [SIN-1, 3-morpholino-sydnonimine], the utrophin labelling result in assay [1] (10^-3 M) is reported as “utrophin labelling increased”; in assay [4] it was “increased labelling of utrophin was also observed to a lesser extent”; in [6] it was “increased labelling of utrophin was also observed to a lesser extent”; in assay [2] (10^-3 M), “utrophin labelling increased”.
Turning to `NC(=O)NO` [hydroxyurea], the utrophin labelling entry in [1] (10^-4 M) and in assay [2] (10^-4 M) was “increases utrophin labelling in remarkable manner” in each case.
